Mutagenic call data for five compounds are collected here from PubChem BioAssay AID1259407 (Chemical Carcinogenesis Research Information System (CCRIS), 2018).

The subject of the series is CCRIS mutagenicity, Ames/micronucleus/aberration tests. Nature of the series: CCRIS mutagenicity studies.
[1] abbreviates: Test System: AMES SALMONELLA TYPHIMURIUM, Strain/Indicator: TA98, Metabolic Activation: NONE, Method: STANDARD PLATE.
The mark [2] stands for this setting: Test System: AMES SALMONELLA TYPHIMURIUM, Strain/Indicator: TA100, Metabolic Activation: NONE, Method: STANDARD PLATE.
Where [3] appears, read: Test System: AMES SALMONELLA TYPHIMURIUM, Strain/Indicator: TA1535, Metabolic Activation: NONE, Method: STANDARD PLATE.
[4] abbreviates: Test System: AMES SALMONELLA TYPHIMURIUM, Strain/Indicator: TA1537, Metabolic Activation: NONE, Method: STANDARD PLATE.
Setting [5] is: Test System: AMES SALMONELLA TYPHIMURIUM, Strain/Indicator: TA98, Metabolic Activation: NONE, Method: PREINCUBATION
The mark [6] stands for this setting: Test System: AMES SALMONELLA TYPHIMURIUM, Strain/Indicator: TA100, Metabolic Activation: NONE, Method: PREINCUBATION

Activity calls are given as the source filed them. How the calls were made is not given here.

Take `CN1C(=O)CC(=O)N(c2ccccc2)c2cc(Cl)ccc21`: the mutagenic call by setting is: under setting [1], “inactive; negative”; (Test System: AMES SALMONELLA TYPHIMURIUM, Strain/Indicator: TA98, Metabolic Activation: RAT, LIVER, S-9, PHENOBARBITAL AND 5,6-BENZOFLAVONE, Method: STANDARD PLATE) “inactive; negative”; under setting [2], “inactive; negative”; (Test System: AMES SALMONELLA TYPHIMURIUM, Strain/Indicator: TA100, Metabolic Activation: RAT, LIVER, S-9, PHENOBARBITAL AND 5,6-BENZOFLAVONE, Method: STANDARD PLATE) “inactive; negative”; under setting [3], “inactive; negative”; (Test System: AMES SALMONELLA TYPHIMURIUM, Strain/Indicator: TA1535, Metabolic Activation: RAT, LIVER, S-9, PHENOBARBITAL AND 5,6-BENZOFLAVONE, Method: STANDARD PLATE) “inactive; negative”. The mutagenic call by setting is: under setting [4], “inactive; negative”; (Test System: AMES SALMONELLA TYPHIMURIUM, Strain/Indicator: TA1537, Metabolic Activation: RAT, LIVER, S-9, PHENOBARBITAL AND 5,6-BENZOFLAVONE, Method: STANDARD PLATE) “inactive; negative”; (Test System: E. COLI, Strain/Indicator: WP2 UVRA, Metabolic Activation: NONE, Method: STANDARD PLATE) “inactive; negative”.

`Nc1cc(Cl)c(N)c(Cl)c1`: the mutagenic call (End Point: IN VITRO CHROMOSOMAL ABERRATIONS, Test System: CHO CELLS, Metabolic Activation: NONE) was “active; positive; weak response”.

For the compound `O=[N+]([O-])c1ccc(F)c([N+](=O)[O-])c1`, the mutagenic call is “active; positive” (Test System: AMES SALMONELLA TYPHIMURIUM, Strain/Indicator: TA98(1,8-DNP6), Metabolic Activation: NONE, Method: PREINCUBATION); “active; positive” (Test System: AMES SALMONELLA TYPHIMURIUM, Strain/Indicator: TA98(NR), Metabolic Activation: NONE, Method: PREINCUBATION); “active; positive” under setting [5]; “active; positive” (Test System: AMES SALMONELLA TYPHIMURIUM, Strain/Indicator: TA98, Metabolic Activation: RAT, LIVER, S-9, KANECHLOR 500, Method: PREINCUBATION); “active; positive” (Test System: AMES SALMONELLA TYPHIMURIUM, Strain/Indicator: TA100(NR), Metabolic Activation: NONE, Method: PREINCUBATION); “active; positive” (Test System: AMES SALMONELLA TYPHIMURIUM, Strain/Indicator: TA100/GSH-, Metabolic Activation: NONE, Method: PREINCUBATION). The mutagenic call is, setting by setting: under setting [6], “active; positive”; (Test System: AMES SALMONELLA TYPHIMURIUM, Strain/Indicator: TA100, Metabolic Activation: RAT, LIVER, S-9, KANECHLOR 500, Method: PREINCUBATION) “active; positive”.

With `O=C(CBr)c1ccccc1`, the mutagenic call by setting is: (Test System: AMES SALMONELLA TYPHIMURIUM, Strain/Indicator: TA98, Metabolic Activation: HAMSTER, LIVER, S-9, AROCLOR 1254, Method: STANDARD PLATE) “inactive; negative”; under setting [5], “inactive; negative”; under setting [1], “inactive; negative”; (Test System: AMES SALMONELLA TYPHIMURIUM, Strain/Indicator: TA98, Metabolic Activation: RAT, LIVER, S-9, AROCLOR 1254, Method: STANDARD PLATE) “inactive; negative”; (Test System: AMES SALMONELLA TYPHIMURIUM, Strain/Indicator: TA98, Metabolic Activation: RAT, LIVER, S-9, PCB, Method: PREINCUBATION) “inactive; negative”; (Test System: AMES SALMONELLA TYPHIMURIUM, Strain/Indicator: TA100, Metabolic Activation: HAMSTER, LIVER, S-9, AROCLOR 1254, Method: STANDARD PLATE) “inactive; negative”. In addition, the mutagenic call runs as follows: under setting [6], “inactive; negative”; under setting [2], “inactive; negative”; (Test System: AMES SALMONELLA TYPHIMURIUM, Strain/Indicator: TA100, Metabolic Activation: RAT, LIVER, S-9, AROCLOR 1254, Method: STANDARD PLATE) “inactive; negative”; (Test System: AMES SALMONELLA TYPHIMURIUM, Strain/Indicator: TA100, Metabolic Activation: RAT, LIVER, S-9, PCB, Method: PREINCUBATION) “inactive; negative”; (Test System: AMES SALMONELLA TYPHIMURIUM, Strain/Indicator: TA1535, Metabolic Activation: HAMSTER, LIVER, S-9, AROCLOR 1254, Method: STANDARD PLATE) “inactive; negative”; under setting [3], “inactive; negative”. In addition, the mutagenic call runs as follows: (Test System: AMES SALMONELLA TYPHIMURIUM, Strain/Indicator: TA1535, Metabolic Activation: RAT, LIVER, S-9, AROCLOR 1254, Method: STANDARD PLATE) “inactive; negative”; (Test System: AMES SALMONELLA TYPHIMURIUM, Strain/Indicator: TA1537, Metabolic Activation: HAMSTER, LIVER, S-9, AROCLOR 1254, Method: STANDARD PLATE) “inactive; negative”; under setting [4], “inactive; negative”; (Test System: AMES SALMONELLA TYPHIMURIUM, Strain/Indicator: TA1537, Metabolic Activation: RAT, LIVER, S-9, AROCLOR 1254, Method: STANDARD PLATE) “inactive; negative”; (Test System: AMES SALMONELLA TYPHIMURIUM, Strain/Indicator: TA1538, Metabolic Activation: HAMSTER, LIVER, S-9, AROCLOR 1254, Method: STANDARD PLATE) “inactive; negative”; (Test System: AMES SALMONELLA TYPHIMURIUM, Strain/Indicator: TA1538, Metabolic Activation: NONE, Method: STANDARD PLATE) “inactive; negative”. Besides, the mutagenic call reads like this: (Test System: AMES SALMONELLA TYPHIMURIUM, Strain/Indicator: TA1538, Metabolic Activation: RAT, LIVER, S-9, AROCLOR 1254, Method: STANDARD PLATE) “inactive; negative”; (Test System: E. COLI, Strain/Indicator: WP2 UVRA, Metabolic Activation: NONE, Method: PREINCUBATION) “inactive; negative”; (Test System: MOUSE LYMPHOMA, Strain/Indicator: L5178Y (TK+/TK-), Metabolic Activation: NONE, Method: SUSPENSION/PLATE) “inactive; negative. reevaluation of results: negative”; (Test System: MOUSE LYMPHOMA, Strain/Indicator: L5178Y (TK+/TK-), Metabolic Activation: RAT, LIVER, S-9, AROCLOR 1254, Method: SUSPENSION/PLATE) “active; positive. reevaluation of results: inconclusive”.

Turning to `O[C@@H]1[C@H]2O[C@H]2c2c(ccc3nc4ccc5ccccc5c4cc23)[C@H]1O`, the mutagenic call under setting [1] is “active; positive”; the mutagenic call (Test System: AMES SALMONELLA TYPHIMURIUM, Strain/Indicator: TA100, Metabolic Activation: GUINEA PIG, LIVER, S-9, 3-METHYLCHOLANTHRENE, Method: STANDARD PLATE) is “active; positive”; the mutagenic call under setting [2] was “active; positive”; the mutagenic call (Test System: CHINESE HAMSTER V-79, Strain/Indicator: V-79/6-THIOGUANINE, Metabolic Activation: NONE) is “active; positive”.
